Measurements from patent US20080318939A1, “METHODS FOR TREATING OPHTHALMIC DISORDERS” (priority 2007, published 2008).

Key:
[1] = test system: leukemia cells; assay: inhibition of proliferation of leukemia cells; assay type: cell-based; details: cells associated with a cell proliferation condition
[2] = test system: normal bone marrow cells; assay: inhibition of proliferation of normal bone marrow cells; assay type: cell-based; details: specificity
[3] = permeation of the blood-brain barrier

Q: For `CN1CCCC1CCNC(=O)c1cn2c3c(c(N4CCC(c5cnccn5)C4)c(F)cc3c1=O)Oc1cc3ccccc3cc1-2` (stereo not drawn) [TA1-1A], which “inhibition of leukemia cells” value [1] is on record?
A: inhibits leukemia cells

Q: And the “inhibition of normal bone marrow cells” value [2]?
A: without inhibiting normal bone marrow cells

Q: With `CC(=O)N1CCN(c2nc3c(cc2F)c(=O)c(C(=O)NCCN2CCCC2)c2n(C)c4ccccc4n32)CC1` [TA4-1 A] as the compound, how does the blood-brain barrier permeation [3] read?
A: significantly permeates the blood-brain barrier
